Results as given in PMC12020230 (Fluids and Barriers of the CNS, 2025).

Tests used:
choroid plexus = test: ^86Rb^+ efflux from excised choroid plexus upon PKA inhibition; assay type: cell-based, rat; details: H89 50 µM vs control, n = 5 of each, P < 0.01
patients = details: midazolam anaesthesia, ref [48]; cited from earlier work
[1] = system: idiopathic intracranial hypertension (IIH) patients; details: small clinical trial, ref [27]; cited from earlier work
[2] = ref [58]; cited from earlier work

Compound: O=S(=O)(NCCNC/C=C/c1ccc(Br)cc1)c1cccc2cnccc12 [H89]
- reduction of K^+ efflux across the luminal membrane (choroid plexus): 25%

Compound: Cc1ncc2n1-c1ccc(Cl)cc1C(c1ccccc1F)=NC2 [midazolam]
- effect on ICP and perfusion pressure (patients): reported to modulate ICP and perfusion pressure in patients

Compound: Exenatide: GLP-1R agonist Exenatide, which has the same amino acid sequence as Ex4
- ICP reductions [1]: 1–3 mmHg

Compound: semaglutide: another GLP-1 receptor agonist, semaglutide
- risk of NAION [2]: associated with increased risk of non-arteritic anterior ischemic optic neuropathy (NAION)
